# Test results published in patent EP0010119A1, “Isoquinoline derivatives, their preparation and pharmaceutical compositions containing these compounds” (THE MASSACHUSETTS GENERAL HOSPITAL, priority 1978, dated 1980).
# Assays:
# [1] = tested on: twitch response of the tibialis anterior muscle; assay: Neuromuscular block of the twitch response of the tibialis anterior muscle in anesthetized monkeys; assay type: in vivo, RHESUS MONKEY
# [2] = tested on: skeletal muscle relaxation; settings: in vivo; cited from earlier work
# [3] = time span from drug injection to full recovery of the twitch response, halothane, nitrous oxide and oxygen anesthesia, 4 animals per compound
SMILES,"Range of dupation of action (minutes from injection to full recovery) [1, 3] [min]",also measured
"COc1ccc(CC2c3cc(OC)c(OC)cc3CC[N+]2(C)CCCOC(=O)C=Cc2ccc(C=CC(=O)OCCC[N+]3(C)CCc4cc(OC)c(OC)cc4C3Cc3ccc(OC)c(OC)c3)cc2)cc1OC (stereo not shown) [GG195, Bis-3-[N-methyl-1-(3,4-dimethoxybenzyl) 6,7-dimethoxy-1,2,3,4-tetrahydroisoquinolinium] propyl p-phenylene-3,3'-diacrylate dichlorid]",15 to 30,
"COc1cc2c(cc1OC)C(Cc1cc(OC)c(OC)c(OC)c1)[N+](C)(CCCOC(=O)C=Cc1ccc(C=CC(=O)OCCC[N+]3(C)CCc4cc(OC)c(OC)cc4C3Cc3cc(OC)c(OC)c(OC)c3)cc1)CC2 (stereo not drawn) [HH109, Bis-3-[N-methyl-l-(3,4,5-trimethoxybenzyl)] 6,7-dimethoxy-1,2,3,4-tetrahydroisoquinolinium propyl p-phenylene-3,3'-diacrylate dichloride]",20 to 30,
COc1ccc(CC2c3cc(OC)c(OC)cc3CC[N+]2(C)CCCOC(=O)Cc2ccc(CC(=O)OCCC[N+]3(C)CCc4cc(OC)c(OC)cc4C3Cc3ccc(OC)c(OC)c3)cc2)cc1OC (stereo not shown) [KK100],10 to 20,
"COc1cc2c(cc1OC)C(Cc1cc(OC)c(OC)c(OC)c1)[N+](C)(CCCOC(=O)Cc1ccc(CC(=O)OCCC[N+]3(C)CCc4cc(OC)c(OC)cc4C3Cc3cc(OC)c(OC)c(OC)c3)cc1)CC2 (stereo not shown) [LL46, Bis-3-(N-methyl-1-(3,4,5-trimethoxybenzyl) 6,7-dimethoxy-1,2,3,4-tetrahydroisoquinolinium) propyl p-phenylene-3,3'-diacetate dichloride]",15 to 25,
"C[N+](C)(C)CCOC(=O)CCC(=O)OCC[N+](C)(C)C [Succinyl-choline, succinylcholine chloride]",,"ED95 ([1]; rhesus monkey, in vivo): 1,0 - 2,0 MG/NG cation; Range of dupation of action (minutes from injection to full recovery) ([1]; rhesus monkey, in vivo): 4 to 6 min; duration of action [2]: 5 to 15 min"
C[N+](C)(C)CCCCCCCCCC[N+](C)(C)C [decamethonium],,duration of action [2]: 20 to 40 min
"COc1cc2c3cc1Oc1cc(ccc1O)C[C@@H]1c4c(cc(OC)c(O)c4Oc4ccc(cc4)C[C@@H]3N(C)CC2)CC[N+]1(C)C.Cl.O.O.O.O.O.[Cl-] [l-Tube-curarine, d-tubocurarine chloride]",30 to 50,"ED95 ([1]; dose range to produce 95 per cent block of the twitch response, muscle stimulated indirectly at 0,15 Hz via the sciatic nerve, halothane, nitrous oxide and oxygen anesthesia, 4 animals per compound): 0,2 - 0,4 MG/NG cation"
